Measurements from US20250179077A1, “QUINAZOLINE COMPOUNDS AND USES THEREOF AS INHIBITORS OF MUTANT KRAS PROTEINS” (AMGEN INC., priority 2022, published 2025).

What was measured:
[1] = biological target: His-tagged KRAS G12D protein (Homo sapiens, UniProt P01116, G12D); assay: KRAS G12D TR-FRET Assay; assay type: binding
How it was run: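 His-KRAS G12D (20 nM) was preincubated with titrated compound for 30 min at RT in HEPES pH 7.4 buffer with MgCl2, 10 μM GDP. Biotin-KRPep-2d (20 nM) was then added for 1 h, followed by Eu-anti-His/streptavidin-d2 for 1 h. The 665/615 nm TR-FRET ratio was fitted 4-parameter to give IC50.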

[2] = biological target: GDP-bound KRAS protein (aa 1-169), containing both G12D and C118A amino acid substitutions (Homo sapiens, UniProt P01116, C118A/G12D); assay: KRAS G12D Coupled Nucleotide Exchange Assay; assay type: biochemical
Experimental: KRAS G12D Coupled Nucleotide Exchange Assay
Following compound pre-incubation, purified SOS protein (aa 564-1049) and GTP (Roche 10106399001) were added to the assay wells and incubated for an additional 30 min. […] The assay plates were then read on a PerkinElmer EnVision Multilabel Reader, using AlphaScreen® technology, and data were analyzed using a 4-parameter logistic model to calculate IC50 values.

[3] = test system: Phosphorylation of ERK1/2 in AsPC-1 cells; assay: Phospho-ERK1/2 MSD Assay; assay type: cell-based; conditions: Homo sapiens, ASPC1, 2 h, read-out: 2 h p-ERK (AsPC-1 cells), IC50, AsPC-1 cells, 2 h compound treatment
How it was run: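 Phospho-ERK1/2 was quantified by MSD whole-cell lysate immunoassay in RIPA lysates made with protease/phosphatase inhibitors. A 4-parameter logistic model gave IC50.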

Chain of GDP-bound KRAS protein (aa 1-169), containing both G12D and C118A amino acid substitutions (P01116 1-169 isoform P01116-2 G12D/C118A): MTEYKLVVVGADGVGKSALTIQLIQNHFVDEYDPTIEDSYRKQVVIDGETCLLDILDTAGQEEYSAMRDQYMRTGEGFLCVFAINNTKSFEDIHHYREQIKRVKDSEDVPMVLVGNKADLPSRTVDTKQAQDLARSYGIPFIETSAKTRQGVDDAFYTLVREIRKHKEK
Chain of His-tagged KRAS G12D protein (P01116 1-188 isoform P01116-2 G12D): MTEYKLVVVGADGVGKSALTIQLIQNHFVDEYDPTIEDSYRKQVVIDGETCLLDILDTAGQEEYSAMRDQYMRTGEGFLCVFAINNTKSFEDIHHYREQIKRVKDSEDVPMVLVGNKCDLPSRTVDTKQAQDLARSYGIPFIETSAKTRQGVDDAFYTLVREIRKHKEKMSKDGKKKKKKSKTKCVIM

CCc1c(F)ccc2cc(O)cc(-c3c(N)cc4c(N5CCCOCC5)nc(OC[C@@]56CCCN5C[C@H](F)C6)nc4c3F)c12 [Example 46, 4-(6-Amino-8-fluoro-2-(((2R,7aS)-2-fluorotetrahydro-1H-pyrrolizin-7a(5H)-yl)methoxy)-4-(1,4-oxazepan-4-yl)quinazolin-7-yl)-5-ethyl-6-fluoronaphthalen-2-ol]
IC50 [1]: 79 nM | IC50 [2]: 36 nM | IC50 [3]: 2570 nM

C#Cc1c(F)ccc2cc(O)cc(-c3ccc4c(N5CCC[C@@](C)(O)C5)nc(OC[C@@]56CCCN5C[C@H](F)C6)nc4c3F)c12 [Example 47, (R)-1-(7-(8-Ethynyl-7-fluoro-3-hydroxynaphthalen-1-yl)-8-fluoro-2-(((2R,7aS)-2-fluorotetrahydro-1H-pyrrolizin-7a(5H)-yl)methoxy)quinazolin-4-yl)-3-methylpiperidin-3-ol]
IC50 [1]: 4 nM | IC50 [2]: 4 nM | IC50 [3]: 21 nM

C#Cc1cccc2cc(O)cc(-c3ccc4c(N5CCC[C@@](C)(O)C5)nc(OC[C@@]56CCCN5C[C@H](F)C6)nc4c3F)c12 [Example 50, (R)-1-(7-(8-Ethynyl-3-hydroxynaphthalen-1-yl)-8-fluoro-2-(((2R,7a.S)-2-fluorotetrahydro-1H-pyrrolizin-7a(5H)-yl)methoxy)quinazolin-4-yl)-3-methylpiperidin-3-ol]
IC50 [1]: 3 nM | IC50 [2]: 3 nM | IC50 [3]: 23 nM

CCc1c(F)ccc2cc(O)cc(-c3ccc4c(N5CCCC6(CC(=O)N6)C5)nc(OC[C@@]56CCCN5C[C@H](F)C6)nc4c3F)c12 (stereo partly drawn) [Example 51, 6-(7-(8-Ethyl-7-fluoro-3-hydroxynaphthalen-1-yl)-8-fluoro-2-(((2R,7aS)-2-fluorotetrahydro-1H-pyrrolizin-7a(5H)-yl)methoxy)quinazolin-4-yl)-1,6-diazaspiro[3.5]nonan-2-one]
IC50 [1]: 3 nM | IC50 [2]: 4 nM | IC50 [3]: 47 nM

CCc1c(F)ccc2cc(O)cc(-c3ccc4c(N5CCCC6(CNC6=O)C5)nc(OC[C@@]56CCCN5C[C@H](F)C6)nc4c3F)c12 (stereo partly drawn) [Example 52, 6-(7-(8-Ethyl-7-fluoro-3-hydroxynaphthalen-1-y1)-8-fluoro-2-(((2R,7a.S)-2-fluorotetrahydro-1H-pyrrolizin-7a(5H)-yl)methoxy)quinazolin-4-yl)-2,6-diazaspiro[3.5]nonan-1-one]
IC50 [1]: 10 nM | IC50 [2]: 7 nM | IC50 [3]: 179 nM

CCc1c(F)ccc2cc(O)cc(-c3ccc4c(N5CCCC6(CNC(=O)C6)C5)nc(OC[C@@]56CCCN5C[C@H](F)C6)nc4c3F)c12 (stereo partly drawn) [Example 53, 7-(7-(8-Ethyl-7-fluoro-3-hydroxynaphthalen-1-yl)-8-fluoro-2-(((2R,7aS)-2-fluorotetrahydro-1H-pyrrolizin-7a(5H)-yl)methoxy)quinazolin-4-yl)-2,7-diazaspiro[4.5]decan-3-one]
IC50 [1]: 3 nM | IC50 [2]: 7 nM | IC50 [3]: 251 nM

CCc1c(F)ccc2cc(O)cc(-c3ccc4c(N5CCCC6(CNC(=O)O6)C5)nc(OC[C@@]56CCCN5C[C@H](F)C6)nc4c3F)c12 (stereo partly drawn) [Example 54, 7-(7-(8-Ethyl-7-fluoro-3-hydroxynaphthalen-1-yl)-8-fluoro-2-(((2R,7aS)-2-fluorotetrahydro-1H-pyrrolizin-7a(5H)-yl)methoxy)quinazolin-4-yl)-1-oxa-3,7-diazaspiro[4.5]decan-2-one]
IC50 [1]: 3 nM | IC50 [2]: 4 nM | IC50 [3]: 23 nM

C[C@@]1(O)CCCN(c2nc(OC[C@@]34CCCN3C[C@H](F)C4)nc3c(F)c(-c4cc(N)cc(Cl)c4C(F)(F)F)ccc23)C1 [Example 60, (R)-1-(7-(5-Amino-3-chloro-2-(trifluoromethyl)phenyl)-8-fluoro-2-(((2R,7aS)-2-fluorotetrahydro-1H-pyrrolizin-7a(5H)-yl)methoxy)quinazolin-4-yl)-3-methylpiperidin-3-ol]
IC50 [1]: 15 nM | IC50 [2]: 12 nM | IC50 [3]: 1170 nM

C#Cc1c(F)ccc2cc(N)cc(-c3ccc4c(N5CCC[C@@](C)(O)C5)nc(OC[C@@]56CCCN5C[C@H](F)C6)nc4c3F)c12 [Example 65, (R)-1-(7-(3-Amino-8-ethynyl-7-fluoronaphthalen-1-yl)-8-fluoro-2-(((2R,7aS)-2-fluorotetrahydro-1H-pyrrolizin-7a(5H)-yl)methoxy)quinazolin-4-yl)-3-methylpiperidin-3-ol]
IC50 [1]: 11 nM | IC50 [2]: 6 nM | IC50 [3]: 260 nM

CCc1c(F)ccc2cc(N)cc(-c3c(F)cc4c(N5CCCC(O)(C(F)F)C5)nc(OC[C@@]56CCCN5C[C@H](F)C6)nc4c3F)c12 (stereo partly drawn) [Example 68, 1-(7-(3-Amino-8-ethyl-7-fluoronaphthalen-1-yl)-6,8-difluoro-2-(((2R,7aS)-2-fluorotetrahydro-1H-pyrrolizin-7a(5H)-yl)methoxy)quinazolin-4-yl)-3-(difluoromethyl)piperidin-3-ol]
IC50 [1]: 436 nM | IC50 [2]: 23 nM | IC50 [3]: 1930 nM

C#Cc1c(F)ccc2cc(N)cc(-c3c(F)cc4c(N5CCCC6(CNC(=O)O6)C5)nc(OC[C@@]56CCCN5C[C@H](F)C6)nc4c3F)c12 (stereo partly drawn) [Example 69, 7-(7-(3-Amino-8-ethynyl-7-fluoronaphthalen-1-yl)-6,8-difluoro-2-(((2R,7aS)-2-fluorotetrahydro-1H-pyrrolizin-7a(5H)-yl)methoxy)quinazolin-4-yl)-1-oxa-3,7-diazaspiro[4.5]decan-2-one]
IC50 [1]: 11 nM | IC50 [2]: 5 nM | IC50 [3]: 175 nM

C#Cc1c(F)ccc2cc(N)cc(-c3c(F)cc4c(N5CCOCC(C)(O)C5)nc(OC[C@@]56CCCN5C[C@H](F)C6)nc4c3F)c12 (stereo partly drawn) [Example 70, 4-(7-(3-Amino-8-ethynyl-7-fluoronaphthalen-1-yl)-6,8-difluoro-2-(((2R,7aS)-2-fluorotetrahydro-1H-pyrrolizin-7a(5H)-yl)methoxy)quinazolin-4-yl)-6-methyl-1,4-oxazepan-6-ol]
IC50 [1]: 19 nM | IC50 [2]: 4 nM | IC50 [3]: 185 nM

CCc1c(F)ccc2cc(N)cc(-c3c(F)cc4c(N5CCCC6(CNC(=O)O6)C5)nc(OC[C@@]56CCCN5C[C@H](F)C6)nc4c3F)c12 (stereo partly drawn) [Example 73, 7-(7-(3-Amino-8-ehtyl-7-fluoronaphthalen-1-yl)-6,8-difluoro-2-(((2R,7aS)-2-fluorotetrahydro-1H-pyrrolizin-7a(5H)-yl)methoxy)quinazolin-4-yl)-1-oxa-3,7-diazaspiro[4.5]decan-2-one]
IC50 [1]: 2 nM | IC50 [2]: 1 nM | IC50 [3]: 90 nM

CCc1c(F)ccc2cc(N)cc(-c3ccc4c(N5CCC[C@@](C)(O)C5)nc(OC[C@@]56CCCN5C[C@H](F)C6)nc4c3F)c12 [Example 74, (R)-1-(7-(3-Amino-8-ethyl-7-fluoronaphthalen-1-yl)-8-fluoro-2-(((2R,7aS)-2-fluorotetrahydro-1H-pyrrolizin-7a(5H)-yl)methoxy)quinazolin-4-yl)-3-methylpiperidin-3-ol]
IC50 [1]: 117 nM | IC50 [2]: 10 nM | IC50 [3]: 1050 nM

CCc1c(F)ccc2cc(N)cc(-c3c(F)cc4c(N5CCCC6(CCO6)C5)nc(OC[C@@]56CCCN5C[C@H](F)C6)nc4c3F)c12 (stereo partly drawn) [Example 75, 4-(6,8-Difluoro-2-(((2R,7aS)-2-fluorotetrahydro-1H-pyrrolizin-7a(5H)-yl)methoxy)-4-(1-oxa-6-azaspiro[3.5]nonan-6-yl)quinazolin-7-yl)-5-ethyl-6-fluoronaphthalen-2-amine]
IC50 [1]: 154 nM | IC50 [2]: 9 nM | IC50 [3]: 500 nM
